Values joined by “and” are separate entries in the source; they are usually repeats but may differ in a detail not shown here. Identical values can stand only once. Like-named read-outs stand apart in the source and are kept apart here.
Legend:
D2LR [1] = target: T1, D2LR (Homo sapiens, UniProt P14416); assay: biochemical
Protocol: The cells were harvested in PBS containing 2 mM EDTA and centrifuged at 300 g for 3 min. The resulting pellet was resuspended in ice-cold assay buffer (20 mM HEPES, 100 mM NaCl, 6 mM MgCl2, 1 mM EGTA and 1 mM EDTA pH 7.4) and the centrifugation step was repeated. The intact cell pellet was then resuspended in assay buffer and homogenized using a Polytron homogenizer. After centrifugation (1,000 g, 10 min), the pellet was discarded and the supernatant was recentrifuged at 30,000 g for 1 h at 4 °C using a Sorvall Evolution RC ultracentrifuge (Thermo Scientific). The resulting pellet was resuspended in assay buffer and stored in 250 μl aliquots at −80 °C. Membrane protein concentration was determined using the method of Bradford.
All radioligand binding experiments were conducted at 37 °C in a 1-ml reaction volume in assay buffer (20 mM HEPES, 100 mM NaCl, 6 mM MgCl2, 1 mM EGTA and 1 mM EDTA pH 7.4) containing 100 μM GppNHp and 0.1% ascorbic acid. In all cases, nonspecific binding was determined in the presence of 10 μM haloperidol. […] Filter-bound radioactivity was measured by scintillation spectrometry after the addition of 3.5 ml of Ultima Gold (PerkinElmer) using a Tri-Carb 2900TR liquid scintillation counter (PerkinElmer).
where Y denotes the percentage-specific binding, Top and Bottom denote the maximal and minimal asymptotes, respectively, IC50 denotes the X-value when the response is midway between Bottom and Top, and nH denotes the Hill slope factor. IC50 values obtained from the inhibition curves were converted to Ki values using the Cheng and Prusoff equation[61].

D2LR [2] = target: T1, D2LR; assay: ERK1/2 phosphorylation assay (Alphascreen SureFire); type: cell-based; design: expressed in transfected cells; conditions: for alpahscreen assay to detect pERK1/2, counts: agonist 10 μM (cariprazine 1 μM), single experiments n=1 to n=4
Protocol: ERK1/2 phosphorylation was measured using the Alphascreen SureFire ERK kit (PerkinElmer, Waltham, USA). Cells were seeded into 96-well plates at a density of 50,000 cells per well. After 5–7 h, cells were washed with PBS and incubated in serum-free DMEM overnight before assaying. Dose–response experiments were performed for each ligand at 37 °C in the presence of 0.1% ascorbic acid. […] The plate was shaken for 5 min at room temperature (RT) before transferring 5 μl of the lysates to a white 384-well Proxiplate (PerkinElmer, Waltham, USA). […] Plates were read using a Fusion-TM plate reader (PerkinElmer, Waltham, USA).

[3] = target: SNAP-tagged human dopamine D2L (Homo sapiens, UniProt P14416); assay: Tag-lite PPHT-red competition kinetic binding (HTRF); conditions: PPHT-red tracer, Tag-lite
Protocol: To terbium label the SNAP-CHO-D2L cells, cell culture medium was removed from the T175 cm^2 flasks containing confluent adherent SNAP-CHO-D2L cells. Twelve millilitres of Tag-lite labelling medium containing 100 nM of SNAP-Lumi4-Tb was added to the flask and incubated for 1 h at 37 °C under 5% CO2. Cells were then washed 2 × in 15 ml PBS (GIBCO, Invitrogen, Paisley, UK) to remove the excess of SNAP-Lumi4-Tb and detached using 5 ml of enzyme-free Hank's-based cell dissociation buffer (GIBCO, Invitrogen, Paisley, UK) and collected in a vial containing 5 ml of DMEM/Nutrient F-12 Ham, 2 mM glutamine supplemented 10% FCS. Cells were pelleted by centrifugation (5 min at 1,500 r.p.m.) and the pellets were frozen to −80 °C before preparation of membranes.
All subsequent steps described were conducted at 4 °C, to avoid receptor degradation. Twenty millilitres of wash buffer (10 mM HEPES and 10 mM EDTA pH 7.4) was added to the pellet of terbium-labelled cells (equivalent to 1 × t175 cm^2). […] The supernatant was discarded and the pellet was homogenized and centrifuged as described above in wash buffer. The final pellet was suspended in ice-cold 10 mM HEPES and 0.1 mM EDTA pH 7.4, at a concentration of 5–10 mg m^−1. Protein concentration was determined by the bicinchoninic acid assay using BSA as a standard and aliquots maintained at −80 °C until required. Before their use, the frozen membranes were thawed and the membranes suspended in the assay buffer at a membrane concentration of 0.1 mg m^−1.
GppNHp was included to remove the G protein-coupled population of receptors that can result in two binding sites in membrane preparations, because the Motulsky–Mahan model is only appropriate for ligands competing at a single site. […] Both fluorescent ligands and unlabelled compounds were diluted in the binding assay buffer.
Kinetics acquisitions at intervals of 20 s were recorded using the standard settings of the reader for HTRF measurements. […] Specific binding was determined by subtracting the nonspecific HTRF ratio from the total HTRF ratio.
To accurately determine association rate (kon) and dissociation rate (koff) values, the observed rate of association (kob) was calculated using at least four different concentrations of PPHT-red. The appropriate concentration of PPHT-red was incubated in a 384-well Optiplate with human SNAP-D2LR-CHO cell membranes (2 μg per well) in assay binding buffer at 37 °C (final assay volume, 40 μl). The degree of PPHT-red bound to the receptor was assessed at multiple time points by HTRF detection, to allow construction of association kinetic curves. The resulting data were globally fitted to the association kinetic model (equation (8)) to derive a single best-fit estimate for kon and koff as described under ‘Data analysis'.
On the same 384-well Optiplate plate, the kinetic parameters of unlabelled ligand were assessed using a competition kinetic binding assay. This approach involves the simultaneous addition of both fluorescent ligand and competitor to receptor preparation so that at t=0 all receptors are unoccupied. […] The degree of PPHT-red bound to the receptor was assessed at multiple time points by HTRF detection. Nonspecific binding was determined as the amount of HTRF signal detected in the presence of spiperone (1 μM) and was subtracted from each time point. Each time point was conducted on the same 384-well plate incubated at 37 °C with shaking (100 r.p.m.) after every cycle.
Data were globally fitted using equation (7), to simultaneously calculate kon and koff.

D2LR [4] = target: T1, D2LR; assay: Inhibition of forskolin-induced cAMP production (BRET CAMYEL biosensor); conditions: for EC50: pEC50 cAMP; for Emax: relative to the maximal response of ropinirole; for Inhibition of cAMP production measured using a CAMYEL BRET biosensor, Net BRET: single experiments n = 1, 2, 3
Protocol: Flp-In-CHO cells stably expressing the D2LR were seeded at a density of 2,000,000 cells per 10-cm dish and were transfected the following day using polyethylenimine as the transfection reagent. The cells were transfected with 3 μg CAMYEL, to allow the detection of cAMP levels within the cells. Twenty-four hours after transfection, the cells were plated into 96-well CulturPlates (PerkinElmer) and grown overnight. The cells were equilibrated in Hank's balanced salt solution at 37 °C (or 25 °C when indicated) before starting the experiment. The cells were co-stimulated with the agonists and 10 μM forskolin for the indicated timeframes when the BRET readings were captured. Coelenterazine (Promega) was added at a final concentration of 5 μM at least 3 min before measurement. […] Net BRET was determined by subtraction of the vehicle control co-added with 10 μM forskolin.

[5] = 5 minute timepoint, Flp-In-CHO-D2LR
[6] = 5 minute timepoint, dopamine as reference agonist

T1 sequence (P14416 whole entry): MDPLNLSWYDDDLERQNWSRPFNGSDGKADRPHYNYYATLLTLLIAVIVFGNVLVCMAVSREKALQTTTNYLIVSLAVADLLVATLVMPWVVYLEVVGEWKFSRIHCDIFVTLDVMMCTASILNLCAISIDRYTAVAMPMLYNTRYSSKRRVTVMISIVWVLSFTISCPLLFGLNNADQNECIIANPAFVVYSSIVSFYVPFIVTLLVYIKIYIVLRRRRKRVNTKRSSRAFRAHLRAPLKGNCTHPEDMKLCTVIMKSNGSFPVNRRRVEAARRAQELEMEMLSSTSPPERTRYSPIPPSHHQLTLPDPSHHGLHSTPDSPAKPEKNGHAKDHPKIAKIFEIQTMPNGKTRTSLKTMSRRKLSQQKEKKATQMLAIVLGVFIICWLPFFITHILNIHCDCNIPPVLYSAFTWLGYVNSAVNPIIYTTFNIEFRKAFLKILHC
Sequence of SNAP-tagged human dopamine D2L (P14416 whole entry): as above

O=c1[nH]c2cccc(N3CCN(Cc4cccc(-c5ccccc5)c4)CC3)c2o1 [Bifeprunox, bifeprunox]
Ki (D2LR [1]): 0.0437 nM | Log(τ/KA) pERK1/2 (D2LR [2]; [5]): 7.32 ± 0.10 | ΔLog(τ/KA) pERK1/2 (D2LR [2]; [6]): -1.24 ± 0.11 | alpahscreen assay to detect pERK1/2, counts (D2LR [2]; time 10 mins): 15.6263 counts and 16.6076 counts and 20.0466 counts and 28.1436 counts | alpahscreen assay to detect pERK1/2, counts (D2LR [2]; time 15 mins): 10.0482 counts and 8.477 counts and 14.6057 counts and 15.1817 counts | koff ([3]; 100 μM GppNHp, 37 °C, read-out: koff (converted)): 0.000167 s⁻¹ | Kd ([3]; read-out: pKd (affinity determined from kinetic parameters) (converted)): 0.0501 nM | Log(τ/KA) cAMP (D2LR [4]; [5]): 7.88 ± 0.05 | ΔLog(τ/KA) cAMP (D2LR [4]; [6]): -0.18 ± 0.07 | EC50 (D2LR [4]; 2 min): 25.1 nM | EC50 (D2LR [4]; 5 min): 12.3 nM | EC50 (D2LR [4]; 10 min): 7.41 nM | EC50 (D2LR [4]; 15 min): 5.37 nM | EC50 (D2LR [4]; 30 min): 2.4 nM | EC50 (D2LR [4]; 45 min): 2.75 nM | EC50 (D2LR [4]; 60 min): 3.09 nM | EC50 (D2LR [4]; 75 min): 1.58 nM | EC50 (D2LR [4]; 90 min): 2.04 nM | Emax (D2LR [4]; read-out: Emax cAMP, 2 min): 89 ± 2% | Emax (D2LR [4]; read-out: Emax cAMP, 5 min): 92 ± 2% | Emax (D2LR [4]; read-out: Emax cAMP, 10 min): 91 ± 2% | Emax (D2LR [4]; read-out: Emax cAMP, 15 min): 89 ± 2.4% | Emax (D2LR [4]; read-out: Emax cAMP, 30 min): 89 ± 1.7% | Emax (D2LR [4]; read-out: Emax cAMP, 45 min): 88 ± 2% | Emax (D2LR [4]; read-out: Emax cAMP, 60 min): 81 ± 2% | Emax (D2LR [4]; read-out: Emax cAMP, 75 min): 90 ± 2.5% | Emax (D2LR [4]; read-out: Emax cAMP, 90 min): 88 ± 2.5% | Inhibition of cAMP production measured using a CAMYEL BRET biosensor, Net BRET (D2LR [4]; time 2.21667 mins): 0.08914 and 0.1211 and 0.09318 | Inhibition of cAMP production measured using a CAMYEL BRET biosensor, Net BRET (D2LR [4]; time 2.58333 mins): 0.103 and 0.1317 and 0.09421 | Inhibition of cAMP production measured using a CAMYEL BRET biosensor, Net BRET (D2LR [4]; time 2.95 mins): 0.1113 and 0.1351 and 0.0964 | Inhibition of cAMP production measured using a CAMYEL BRET biosensor, Net BRET (D2LR [4]; time 3.31667 mins): 0.1109 and 0.1416 and 0.1166 | Inhibition of cAMP production measured using a CAMYEL BRET biosensor, Net BRET (D2LR [4]; time 3.68333 mins): 0.1141 and 0.143 and 0.1124 | Inhibition of cAMP production measured using a CAMYEL BRET biosensor, Net BRET (D2LR [4]; time 4.05 mins): 0.1231 and 0.1563 and 0.1162 | Inhibition of cAMP production measured using a CAMYEL BRET biosensor, Net BRET (D2LR [4]; time 4.41667 mins): 0.1255 and 0.1611 and 0.116 | Inhibition of cAMP production measured using a CAMYEL BRET biosensor, Net BRET (D2LR [4]; time 4.78333 mins): 0.1306 and 0.1617 and 0.1229 | Inhibition of cAMP production measured using a CAMYEL BRET biosensor, Net BRET (D2LR [4]; time 5.15 mins): 0.1492 and 0.1604 and 0.1179 | Inhibition of cAMP production measured using a CAMYEL BRET biosensor, Net BRET (D2LR [4]; time 5.51667 mins): 0.135 and 0.1611 and 0.1193 | Inhibition of cAMP production measured using a CAMYEL BRET biosensor, Net BRET (D2LR [4]; time 5.88333 mins): 0.1401 and 0.1595 and 0.123 | Inhibition of cAMP production measured using a CAMYEL BRET biosensor, Net BRET (D2LR [4]; time 6.25 mins): 0.1298 and 0.1539 and 0.1222 | Inhibition of cAMP production measured using a CAMYEL BRET biosensor, Net BRET (D2LR [4]; time 6.61667 mins): 0.1365 and 0.1594 and 0.1215 | Inhibition of cAMP production measured using a CAMYEL BRET biosensor, Net BRET (D2LR [4]; time 6.98333 mins): 0.1365 and 0.1586 and 0.1225 | Inhibition of cAMP production measured using a CAMYEL BRET biosensor, Net BRET (D2LR [4]; time 7.35 mins): 0.1382 and 0.1575 and 0.1195 | Inhibition of cAMP production measured using a CAMYEL BRET biosensor, Net BRET (D2LR [4]; time 7.71667 mins): 0.1358 and 0.1585 and 0.1189 | Inhibition of cAMP production measured using a CAMYEL BRET biosensor, Net BRET (D2LR [4]; time 8.08333 mins): 0.1415 and 0.1636 and 0.1191 | Inhibition of cAMP production measured using a CAMYEL BRET biosensor, Net BRET (D2LR [4]; time 8.45 mins): 0.1387 and 0.16 and 0.1143 | Inhibition of cAMP production measured using a CAMYEL BRET biosensor, Net BRET (D2LR [4]; time 8.81667 mins): 0.1483 and 0.1622 and 0.1213 | Inhibition of cAMP production measured using a CAMYEL BRET biosensor, Net BRET (D2LR [4]; time 9.18333 mins): 0.1415 and 0.1645 and 0.1136 | Inhibition of cAMP production measured using a CAMYEL BRET biosensor, Net BRET (D2LR [4]; time 9.55 mins): 0.1361 and 0.1571 and 0.122 | Inhibition of cAMP production measured using a CAMYEL BRET biosensor, Net BRET (D2LR [4]; time 9.91667 mins): 0.1368 and 0.1537 and 0.1212 | Inhibition of cAMP production measured using a CAMYEL BRET biosensor, Net BRET (D2LR [4]; time 10.2833 mins): 0.1433 and 0.1558 and 0.1185 | Inhibition of cAMP production measured using a CAMYEL BRET biosensor, Net BRET (D2LR [4]; time 10.65 mins): 0.1418 and 0.1582 and 0.1222 | Inhibition of cAMP production measured using a CAMYEL BRET biosensor, Net BRET (D2LR [4]; time 11.0167 mins): 0.1356 and 0.1444 and 0.1266 | Inhibition of cAMP production measured using a CAMYEL BRET biosensor, Net BRET (D2LR [4]; time 11.3833 mins): 0.1394 and 0.145 and 0.1251 | Inhibition of cAMP production measured using a CAMYEL BRET biosensor, Net BRET (D2LR [4]; time 11.75 mins): 0.1471 and 0.1529 and 0.1151 | Inhibition of cAMP production measured using a CAMYEL BRET biosensor, Net BRET (D2LR [4]; time 12.1167 mins): 0.148 and 0.1471 and 0.1222 | Inhibition of cAMP production measured using a CAMYEL BRET biosensor, Net BRET (D2LR [4]; time 12.4833 mins): 0.1456 and 0.1415 and 0.132 | Inhibition of cAMP production measured using a CAMYEL BRET biosensor, Net BRET (D2LR [4]; time 12.85 mins): 0.1323 and 0.1432 and 0.12 | Inhibition of cAMP production measured using a CAMYEL BRET biosensor, Net BRET (D2LR [4]; time 13.2167 mins): 0.14 and 0.1381 and 0.1276 | Inhibition of cAMP production measured using a CAMYEL BRET biosensor, Net BRET (D2LR [4]; time 13.5833 mins): 0.1427 and 0.1424 and 0.1286 | Inhibition of cAMP production measured using a CAMYEL BRET biosensor, Net BRET (D2LR [4]; time 13.95 mins): 0.1347 and 0.1377 and 0.1287 | Inhibition of cAMP production measured using a CAMYEL BRET biosensor, Net BRET (D2LR [4]; time 14.3167 mins): 0.1428

Reference: PMC4770093, “The role of kinetic context in apparent biased agonism at GPCRs” (Nature Communications, 2016)
